Measurements taken from ChEMBL document CHEMBL1146594, “The leupyrrins: a structurally unique family of secondary metabolites from the myxobacterium Sorangium cellulosum” (J Nat Prod, 2003).
≈ marks a conversion by molar mass, not a printed value. Calls of active or inactive are those of the source. The rule behind the calls is not given here.

Columns and labels:
Rhodotorula glutinis [1] = test: Antifungal activity against Rhodotorula glutinis; type: functional
Rhodotorula glutinis [2] = test: Inhibition of protein synthesis in Rhodotorula glutinis assessed as inhibition of [U-14C]protein hydrolysate incorporation at 2.5 ug/mL after 30 mins; type: functional, organism-based
Rhodotorula glutinis [3] = test: Inhibition of RNA synthesis in Rhodotorula glutinis assessed as inhibition of [2-14C]uracil incorporation at 2.5 ug/mL after 30 mins; type: functional, organism-based
L929 = test: Cytotoxicity against mouse L929 cells; type: cell-based
Mucor hiemalis = test: Antifungal activity against Mucor hiemalis; type: functional
Botrytis cinerea = test: Antifungal activity against Botrytis cinerea; type: functional
Rhodotorula glutinis [4] = test: Inhibition of DNA synthesis in Rhodotorula glutinis assessed as inhibition of [methyl-3H]thymine incorporation at 2.5 ug/mL after 30 mins; type: functional, organism-based
Aspergillus niger = test: Antifungal activity against Aspergillus niger; type: functional
Candida albicans = test: Antifungal activity against Candida albicans; type: functional

COCCC/C(C)=C1\COC(CC(C)C)\C1=C/C1N=C2OC1COC(=O)[C@@H](CC(C)C)CC(=O)OC1C(OC(=O)C1(C)CO)/C(C)=C/Cc1ccc2[nH]1 (some centres undefined) [LEUPYRRIN A1]
MIC (Rhodotorula glutinis [1]): 0.25 µg/mL (≈ 0.338 µM) | Activity (Rhodotorula glutinis [2]): Active | Activity (Rhodotorula glutinis [3]): Active | IC50 (L929): 1 µg/mL (≈ 1.35 µM) | MIC (Mucor hiemalis): 0.3 µg/mL (≈ 0.406 µM) | MIC (Botrytis cinerea): 0.8 µg/mL (≈ 1.08 µM) | Activity (Rhodotorula glutinis [4]): Active | MIC (Aspergillus niger): 0.8 µg/mL (≈ 1.08 µM) | MIC (Candida albicans): > 25 µg/mL
